Source: patent US20230053540A1, “TREATMENT OF LIVER INJURY” (Massachusetts Institute of Technology, priority 2019, published 2023)

System: hepatocytes
Assay: Seq-Well scRNA-Seq of hepatocytes after APAP overdose (signature scores, DEG vs untreated)
Assay type: in vivo, mouse
[1] = hepatocytes, cluster A48 (APAP) vs other treatment clusters
[2] = time point A6 vs untreated (UT)

For `CC(=O)Nc1ccc(O)cc1` [APAP, acetaminophen], the “Rdh7 avg_logFC” value [1] was 0.4684, the “Reep6 avg_logFC” value [1] was 0.6233 and the “Retsat avg_logFC” value [1] was 0.7096. The “Rgs16 avg_logFC” value [1] was 0.4545, the “Rpl38 avg_logFC” value [1] was 0.3322 and the “Scand1 avg_logFC” value [1] was 0.2707. The “Serpina3m avg_logFC” value [1] was 0.4034, the “Serpina1d avg_logFC” value [1] was 0.3053 and the “Serping1 avg_logFC” value [1] was 0.5777. For the same molecule, the “Slc25a10 avg_logFC” value [1] was 0.4313, the “Slc25a20 avg_logFC” value [1] was 0.3875 and the “Slc25a47 avg_logFC” value [1] was 0.6175. The “Slc27a5 avg_logFC” value [1] was 0.4062, the “Slc37a4 avg_logFC” value [1] was 0.4461 and the “Slco1a4 avg_logFC” value [1] was 0.5091. For the same molecule, the “Snord118 avg_logFC” value [1] was 0.4771, the “St3gal5 avg_logFC” value [1] was 0.5549 and the “Sult1a1 avg_logFC” value [1] was 0.4827. For the same molecule, the “Syvn1 avg_logFC” value [1] was 0.3041, the “Tcea3 avg_logFC” value [1] was 0.3938 and the “Tef avg_logFC” value [1] was 0.3394. The “Tmbim4 avg_logFC” value [1] was 0.3693, the “Tmbim6 avg_logFC” value [1] was 0.3713 and the “Ttc36 avg_logFC” value [1] was 0.5638. The “Ttpa avg_logFC” value [1] was 0.4431, the “Ttr avg_logFC” value [1] was 0.4225 and the “Ugt2b5 avg_logFC” value [1] was 0.4388. The “Vnn3 avg_logFC” value [1] was 0.3008, the “Vtn avg_logFC” value [1] was 0.5228 and the “Yipf3 avg_logFC” value [1] was 0.2785. The “avg_logFC 15-Sep” value [2] was −0.4092, the “avg_logFC 0610007P14Rik” value [2] was −0.257 and the “avg_logFC 0610011F06Rik” value [2] was −0.3037. For the same molecule, the “avg_logFC 1110008F13Rik” value [2] was −0.3751, the “avg_logFC 1110058L19Rik” value [2] was −0.2581 and the “avg_logFC 1810022K09Rik” value [2] was −0.3001. The “avg_logFC 2010107E04Rik” value [2] was −0.3182, the “avg_logFC 3110043021Rik” value [2] was 0.2694 and the “avg_logFC AA474408” value [2] was 0.3471. For the same molecule, the “avg_logFC AW112010” value [2] was −0.2981, the “avg_logFC Aadat” value [2] was −0.3186 and the “avg_logFC Abcc2” value [2] was 0.2897. The “avg_logFC Abcd3” value [2] was −0.2718, the “avg_logFC Abhd14b” value [2] was −0.3937 and the “avg_logFC Acads” value [2] was −0.3242. For the same molecule, the “avg_logFC Acbd5” value [2] was −0.3952, the “avg_logFC Acot13” value [2] was −0.2886 and the “avg_logFC Actn4” value [2] was 0.3124. The “avg_logFC Adtrp” value [2] was −0.3664, the “avg_logFC Agpat2” value [2] was −0.2982 and the “avg_logFC Ak2” value [2] was −0.3451. For the same molecule, the “avg_logFC Akap11” value [2] was 0.3464, the “avg_logFC Akr1a1” value [2] was −0.3269 and the “avg_logFC Akr1e1” value [2] was −0.2582. The “avg_logFC Amy1” value [2] was −0.283, the “avg_logFC Anapc13” value [2] was −0.3642 and the “avg_logFC Ankrd11” value [2] was 0.4156. For the same molecule, the “avg_logFC Anp32a” value [2] was −0.317, the “avg_logFC Anxa5” value [2] was 0.3654 and the “avg_logFC Aox3” value [2] was −0.3333. For the same molecule, the “avg_logFC Apc” value [2] was 0.279, the “avg_logFC Apcs” value [2] was 0.2989 and the “avg_logFC Apom” value [2] was −0.3024. For the same molecule, the “avg_logFC Aqp9” value [2] was −0.3109, the “avg_logFC Arl6ip1” value [2] was −0.3649 and the “avg_logFC Atf4” value [2] was 0.3411. For the same molecule, the “avg_logFC Atf6” value [2] was 0.3778, the “avg_logFC Atp1b1” value [2] was 0.3702 and the “avg_logFC Atp2b1” value [2] was 0.3321. The “avg_logFC Atp5c1” value [2] was −0.3476, the “avg_logFC Atp5g3” value [2] was −0.3002 and the “avg_logFC Atp5o” value [2] was −0.3316. The “avg_logFC BC005537” value [2] was 0.3543, the “avg_logFC Baat” value [2] was −0.3086 and the “avg_logFC Baz1a” value [2] was 0.2596. For the same molecule, the “avg_logFC Bckdha” value [2] was −0.35, the “avg_logFC Bet1” value [2] was −0.2966 and the “avg_logFC Bhmt2” value [2] was −0.3114. For the same molecule, the “avg_logFC Bnip3” value [2] was −0.3362, the “avg_logFC Bola3” value [2] was −0.3689 and the “avg_logFC Bptf” value [2] was 0.3245. The “avg_logFC Bsg” value [2] was −0.3152, the “avg_logFC Bst2” value [2] was −0.3156 and the “avg_logFC C8b” value [2] was −0.3159. The “avg_logFC C130074G19Rik” value [2] was −0.3563, the “avg_logFC Car5a” value [2] was −0.3088 and the “avg_logFC Cars” value [2] was 0.3158. The “avg_logFC Cast” value [2] was 0.4009, the “avg_logFC Cebpb” value [2] was −0.3617 and the “avg_logFC Cela1” value [2] was −0.2723. The “avg_logFC Cep85l” value [2] was 0.2779, the “avg_logFC Ces1f” value [2] was −0.3126 and the “avg_logFC Cfhr1” value [2] was −0.3253. The “avg_logFC Chmp4b” value [2] was 0.3002, the “avg_logFC Chuk” value [2] was 0.3724 and the “avg_logFC Cideb” value [2] was −0.3684. The “avg_logFC Cisd1” value [2] was −0.3727, the “avg_logFC Cldn2” value [2] was −0.2511 and the “avg_logFC Cldn3” value [2] was −0.3145. For the same molecule, the “avg_logFC Cnpy2” value [2] was −0.3729, the “avg_logFC Coq9” value [2] was −0.3479 and the “avg_logFC Coro1c” value [2] was 0.3067. The “avg_logFC Cox6b1” value [2] was −0.362, the “avg_logFC Cox8a” value [2] was −0.3993 and the “avg_logFC Cpb2” value [2] was −0.3215. For the same molecule, the “avg_logFC Cpt1a” value [2] was 0.2611, the “avg_logFC Csde1” value [2] was 0.3156 and the “avg_logFC Csrp3” value [2] was −0.294. For the same molecule, the “avg_logFC Ctsc” value [2] was 0.361, the “avg_logFC Cxcl1” value [2] was 0.3701 and the “avg_logFC Cybb” value [2] was 0.3778. The “avg_logFC Cyp4f14” value [2] was −0.2959, the “avg_logFC Cyp4f15” value [2] was −0.2998 and the “avg_logFC Cyp27a1” value [2] was −0.3735. The “avg_logFC D10Jhu81e” value [2] was −0.3957, the “avg_logFC D17Wsu92e” value [2] was 0.2525 and the “avg_logFC Ddah1” value [2] was −0.312. The “avg_logFC Ddx3y” value [2] was 0.3395, the “avg_logFC Derl2” value [2] was −0.3317 and the “avg_logFC Dgat2” value [2] was −0.3433. For the same molecule, the “avg_logFC Dhdh” value [2] was −0.3348, the “avg_logFC Dhrs4” value [2] was −0.3321 and the “avg_logFC Dhx9” value [2] was 0.3504. For the same molecule, the “avg_logFC Dnaja2” value [2] was 0.3723, the “avg_logFC Dnajc5” value [2] was 0.3265 and the “avg_logFC Dnajc19” value [2] was −0.316. For the same molecule, the “avg_logFC Dync1h1” value [2] was 0.3796, the “avg_logFC Dync1li1” value [2] was 0.2624 and the “avg_logFC Ebp” value [2] was −0.3553. The “avg_logFC Echs1” value [2] was −0.3316, the “avg_logFC Edf1” value [2] was −0.3817 and the “avg_logFC Eef1a1” value [2] was 0.2826. For the same molecule, the “avg_logFC Eif3c” value [2] was 0.302, the “avg_logFC Eif4b” value [2] was 0.3682 and the “avg_logFC Eprs” value [2] was 0.3701. The “avg_logFC Erbb2ip” value [2] was 0.3332, the “avg_logFC Esd” value [2] was −0.2808 and the “avg_logFC Ethe1” value [2] was −0.3334. For the same molecule, the “avg_logFC Etnk1” value [2] was 0.316, the “avg_logFC F10” value [2] was −0.2719 and the “avg_logFC Fah” value [2] was −0.2593. For the same molecule, the “avg_logFC Fam25c” value [2] was −0.2977, the “avg_logFC Fam214a” value [2] was −0.2658 and the “avg_logFC Fbxo21” value [2] was −0.2631. The “avg_logFC Fcna” value [2] was 0.3774, the “avg_logFC Fdps” value [2] was −0.2663 and the “avg_logFC Fkbp4” value [2] was −0.3534. For the same molecule, the “avg_logFC Fus” value [2] was 0.3393, the “avg_logFC Gadd45g” value [2] was −0.3554 and the “avg_logFC Gadd45gip1” value [2] was −0.3041. For the same molecule, the “avg_logFC Gcdh” value [2] was −0.3003, the “avg_logFC Ghr” value [2] was −0.3648 and the “avg_logFC Gjb1” value [2] was −0.3166. The “avg_logFC Glyctk” value [2] was −0.2977, the “avg_logFC Gm2788” value [2] was −0.2831 and the “avg_logFC Gm4951” value [2] was −0.3221. The “avg_logFC Gm10800” value [2] was 0.5626, the “avg_logFC Gm24245” value [2] was 0.5465 and the “avg_logFC Grhpr” value [2] was −0.3531. For the same molecule, the “avg_logFC Gsr” value [2] was 0.4128, the “avg_logFC Gstm4” value [2] was −0.3809 and the “avg_logFC Gyk” value [2] was 0.3684. The “avg_logFC Hibch” value [2] was −0.3271, the “avg_logFC Hipk3” value [2] was 0.3394 and the “avg_logFC Hist1h1c” value [2] was −0.3009. For the same molecule, the “avg_logFC Hmgcs1” value [2] was −0.3491, the “avg_logFC Hsd17b10” value [2] was −0.3772 and the “avg_logFC Hsp90b1” value [2] was −0.2615. The “avg_logFC Hspa5” value [2] was 0.2682, the “avg_logFC Huwe1” value [2] was 0.3879 and the “avg_logFC Ifrd1” value [2] was 0.4904. The “avg_logFC Il6ra” value [2] was 0.3044, the “avg_logFC Ipo5” value [2] was 0.2687 and the “avg_logFC Ipo7” value [2] was 0.3246. The “avg_logFC Ivns1abp” value [2] was 0.3566, the “avg_logFC Jhdm1d” value [2] was 0.3041 and the “avg_logFC Kif21a” value [2] was 0.4042. The “avg_logFC Lap3” value [2] was −0.3644, the “avg_logFC Larp4b” value [2] was 0.3421 and the “avg_logFC Lcp1” value [2] was 0.484. The “avg_logFC Lrrfip2” value [2] was 0.3731, the “avg_logFC Lsmd1” value [2] was −0.3131 and the “avg_logFC Macf1” value [2] was 0.4042. For the same molecule, the “avg_logFC Mak16” value [2] was 0.3171, the “avg_logFC Map3k5” value [2] was 0.3347 and the “avg_logFC Mbl2” value [2] was −0.3465. The “avg_logFC Mcee” value [2] was −0.3199, the “avg_logFC Mdh1” value [2] was −0.3077 and the “avg_logFC Mdm2” value [2] was 0.3283. The “avg_logFC Metap2” value [2] was 0.3686, the “avg_logFC Mettl7a1” value [2] was −0.3221 and the “avg_logFC Mien1” value [2] was −0.3704. The “avg_logFC Mki67ip” value [2] was 0.3184, the “avg_logFC Mocs2” value [2] was −0.3467 and the “avg_logFC Mpc1” value [2] was −0.2802. The “avg_logFC Mrc1” value [2] was 0.3404, the “avg_logFC Mrp133” value [2] was −0.2654 and the “avg_logFC Mrpl11” value [2] was −0.2685. The “avg_logFC Mrpl12” value [2] was −0.3082, the “avg_logFC Mrpl15” value [2] was −0.2912 and the “avg_logFC Mrpl34” value [2] was −0.2838. For the same molecule, the “avg_logFC Mrpl41” value [2] was −0.2674.
